Blank lines part the entries; values can stand above or below the compound they belong to.
What was measured:
[1] = target: T1, Platelet-derived growth factor receptor beta (Homo sapiens, UniProt P09619); test: Inhibition of PDGFRbeta (unknown origin) at 100 nM by caliper mobility shift assay relative to control
[2] = target: T1, Platelet-derived growth factor receptor beta; test: Inhibition of PDGFRbeta (unknown origin) by caliper mobility shift assay
[3] = target: Platelet-derived growth factor receptor alpha (Homo sapiens, UniProt P16234); conditions: dose 100.0 nM
Description: Inhibition of PDGFRalpha (unknown origin) at 100 nM by caliper mobility shift assay relative to control

[4] = test system: U2OS; test: Antiproliferative activity against human U2OS cells assessed as reduction in cell viability incubated for 48 hrs by MTT assay
[5] = test system: MG-63; test: Antiproliferative activity against human MG-63 cells assessed as reduction in cell viability incubated for 48 hrs by MTT assay; conditions: MG-63, 48 h
[6] = test system: SAOS-2; test: Antiproliferative activity against human SAOS-2 cells assessed as reduction in cell viability incubated for 48 hrs by MTT assay; conditions: SAOS-2, 48 h
[7] = test system: HOS-TE85; test: Antiproliferative activity against human MNNG/HOS cells assessed as reduction in cell viability incubated for 48 hrs by MTT assay; conditions: HOS-TE85, 48 h
[8] = Toxicity in BALB/c nude mouse xenograted with human MNNG/HOS cells assessed as kidney lesion at 30 mg/kg/day, po for 14 days by hematoxylin and eosin staining method; type: organism-based, HOS-TE85; conditions: in vivo, 336 h, time 14 day
[9] = Toxicity in BALB/c nude mouse xenograted with human MNNG/HOS cells assessed as effect on lung weight at 15 to 30 mg/kg/day, po dosed for 14 days; type: organism-based, HOS-TE85; conditions: in vivo, 336 h, dose 15-30 mg/kg/day, time 14 day
[10] = Cmax in Sprague-Dawley rat at 4 mg/kg, ip measured at 0.08 to 8 hrs by UHPLC-MS/MS analysis; type: ADME, organism-based; set-up: time lower 0.08 hrs, dose 4 mg/kg, time upper 8 hrs, route ip; conditions: in vivo
[11] = Toxicity in BALB/c nude mouse xenograted with human MNNG/HOS cells assessed as effect on heart weight at 15 to 30 mg/kg/day, po dosed for 14 days; type: organism-based, HOS-TE85; conditions: in vivo, 336 h, dose 15-30 mg/kg/day, time 14 day
[12] = Toxicity in BALB/c nude mouse xenograted with human MNNG/HOS cells assessed as effect on body weight at 15 to 30 mg/kg/day, po dosed for 14 days; type: organism-based, HOS-TE85; conditions: in vivo, 336 h, dose 15-30 mg/kg/day, time 14 day
[13] = Toxicity in C57/BL6 mouse assessed as change in heart weight at 40 to 80 mg/kg/day, po dosed for 10 days; type: organism-based; conditions: in vivo, 240 h, dose 40-80 mg/kg/day, time 10 day
[14] = Toxicity in C57/BL6 mouse assessed as change in kidney weight at 40 to 80 mg/kg/day, po dosed for 10 days; type: organism-based; conditions: in vivo, 240 h, dose 40-80 mg/kg/day, time 10 day
[15] = Toxicity in BALB/c nude mouse xenograted with human MNNG/HOS cells assessed as morphological change in kidney at 15 to 30 mg/kg/day, po for 14 days by hematoxylin and eosin staining method; type: organism-based, HOS-TE85; conditions: in vivo, 336 h, dose 15-30 mg/kg/day, time 14 day
[16] = Toxicity in BALB/c nude mouse xenograted with human MNNG/HOS cells assessed as morphological change in liver at 15 to 30 mg/kg/day, po for 14 days by hematoxylin and eosin staining method; type: organism-based, HOS-TE85; conditions: in vivo, 336 h, dose 15-30 mg/kg/day, time 14 day
[17] = Toxicity in C57/BL6 mouse assessed as change in spleen weight at 40 to 80 mg/kg/day, po dosed for 10 days; type: organism-based; conditions: in vivo, 240 h, dose 40-80 mg/kg/day, time 10 day
[18] = Half life in Sprague-Dawley rat at 20 mg/kg, po measured at 0.033 to 48 hrs by UHPLC-MS/MS analysis; type: ADME, organism-based; conditions: in vivo, time 0.033-48 hrs
[19] = Oral bioavailability in Sprague-Dawley rat at 20 mg/kg measured at 0.033 to 48 hrs by UHPLC-MS/MS analysis; type: ADME, organism-based; conditions: in vivo, time 0.033-48 hrs
[20] = Hepatotoxicity in C57/BL6 mouse assessed as effect on aspartate aminotransferase level at 40 to 80 mg/kg/day, po dosed for 10 days by liver function test; type: toxicity, organism-based; conditions: in vivo, 240 h, dose 40-80 mg/kg/day, time 10 day
[21] = Half life in Sprague-Dawley rat at 4 mg/kg, ip measured at 0.08 to 8 hrs by UHPLC-MS/MS analysis; type: ADME, organism-based; conditions: in vivo, time 0.08-8 hrs
[22] = Toxicity in C57/BL6 mouse assessed as histopathological change in kidney at 40 to 80 mg/kg/day, po dosed for 10 days by Hematoxylin and eosin based staining analysis; type: organism-based; conditions: in vivo, 240 h, dose 40-80 mg/kg/day, time 10 day
[23] = Toxicity in C57/BL6 mouse assessed as change in liver weight at 40 to 80 mg/kg/day, po dosed for 10 days; type: organism-based; conditions: in vivo, 240 h, dose 40-80 mg/kg/day, time 10 day
[24] = Nephrotoxicity in C57/BL6 mouse assessed as effect on creatinine level at 40 to 80 mg/kg/day, po dosed for 10 days by kidney function test; type: toxicity, organism-based; conditions: in vivo, 240 h, dose 40-80 mg/kg/day, time 10 day
[25] = Toxicity in C57/BL6 mouse assessed as change in lung weight at 40 to 80 mg/kg/day, po dosed for 10 days; type: organism-based; conditions: in vivo, 240 h, dose 40-80 mg/kg/day, time 10 day
[26] = Toxicity in C57/BL6 mouse assessed as tolerability at 40 to 80 mg/kg/day, po dosed for 10 days; type: organism-based; conditions: in vivo, 240 h, dose 40-80 mg/kg/day, time 10 day
[27] = Hepatotoxicity in C57/BL6 mouse assessed as effect on alanine aminotransferase level at 40 to 80 mg/kg/day, po dosed for 10 days by liver function test; type: toxicity, organism-based; conditions: in vivo, 240 h, dose 40-80 mg/kg/day, time 10 day
[28] = Toxicity in BALB/c nude mouse xenograted with human MNNG/HOS cells assessed as effect on liver weight at 15 to 30 mg/kg/day, po dosed for 14 days; type: organism-based, HOS-TE85; conditions: in vivo, 336 h, dose 15-30 mg/kg/day, time 14 day
[29] = Toxicity in C57/BL6 mouse assessed as histopathological change in liver at 40 to 80 mg/kg/day, po dosed for 10 days by Hematoxylin and eosin based staining analysis; type: organism-based; conditions: in vivo, 240 h, dose 40-80 mg/kg/day, time 10 day
[30] = AUC(0 to infinity) in Sprague-Dawley rat at 20 mg/kg, po measured at 0.033 to 48 hrs by UHPLC-MS/MS analysis; type: ADME, organism-based; set-up: dose 20 mg/kg, time 0.033-48 hrs, route po; conditions: in vivo
[31] = Toxicity in C57/BL6 mouse assessed as change in body weight at 40 to 80 mg/kg/day, po dosed for 10 days; type: organism-based; conditions: in vivo, 240 h, dose 40-80 mg/kg/day, time 10 day
[32] = AUC(0 to infinity) in Sprague-Dawley rat at 4 mg/kg, ip measured at 0.08 to 8 hrs by UHPLC-MS/MS analysis; type: ADME, organism-based; set-up: dose 4 mg/kg, time 0.08-8 hrs, route ip; conditions: in vivo
[33] = Toxicity in BALB/c nude mouse xenograted with human MNNG/HOS cells assessed as effect on kidney weight at 15 to 30 mg/kg/day, po dosed for 14 days; type: organism-based, HOS-TE85; conditions: in vivo, 336 h, dose 15-30 mg/kg/day, time 14 day
[34] = Toxicity in BALB/c nude mouse xenograted with human MNNG/HOS cells assessed as effect on spleen weight at 15 to 30 mg/kg/day, po dosed for 14 days; type: organism-based, HOS-TE85; conditions: in vivo, 336 h, dose 15-30 mg/kg/day, time 14 day
[35] = Cmax in Sprague-Dawley rat at 20 mg/kg, po measured at 0.033 to 48 hrs by UHPLC-MS/MS analysis; type: ADME, organism-based; set-up: dose 20 mg/kg, time upper 48 hrs, time lower 0.033 hrs, route po; conditions: in vivo

T1 sequence (P09619 whole entry): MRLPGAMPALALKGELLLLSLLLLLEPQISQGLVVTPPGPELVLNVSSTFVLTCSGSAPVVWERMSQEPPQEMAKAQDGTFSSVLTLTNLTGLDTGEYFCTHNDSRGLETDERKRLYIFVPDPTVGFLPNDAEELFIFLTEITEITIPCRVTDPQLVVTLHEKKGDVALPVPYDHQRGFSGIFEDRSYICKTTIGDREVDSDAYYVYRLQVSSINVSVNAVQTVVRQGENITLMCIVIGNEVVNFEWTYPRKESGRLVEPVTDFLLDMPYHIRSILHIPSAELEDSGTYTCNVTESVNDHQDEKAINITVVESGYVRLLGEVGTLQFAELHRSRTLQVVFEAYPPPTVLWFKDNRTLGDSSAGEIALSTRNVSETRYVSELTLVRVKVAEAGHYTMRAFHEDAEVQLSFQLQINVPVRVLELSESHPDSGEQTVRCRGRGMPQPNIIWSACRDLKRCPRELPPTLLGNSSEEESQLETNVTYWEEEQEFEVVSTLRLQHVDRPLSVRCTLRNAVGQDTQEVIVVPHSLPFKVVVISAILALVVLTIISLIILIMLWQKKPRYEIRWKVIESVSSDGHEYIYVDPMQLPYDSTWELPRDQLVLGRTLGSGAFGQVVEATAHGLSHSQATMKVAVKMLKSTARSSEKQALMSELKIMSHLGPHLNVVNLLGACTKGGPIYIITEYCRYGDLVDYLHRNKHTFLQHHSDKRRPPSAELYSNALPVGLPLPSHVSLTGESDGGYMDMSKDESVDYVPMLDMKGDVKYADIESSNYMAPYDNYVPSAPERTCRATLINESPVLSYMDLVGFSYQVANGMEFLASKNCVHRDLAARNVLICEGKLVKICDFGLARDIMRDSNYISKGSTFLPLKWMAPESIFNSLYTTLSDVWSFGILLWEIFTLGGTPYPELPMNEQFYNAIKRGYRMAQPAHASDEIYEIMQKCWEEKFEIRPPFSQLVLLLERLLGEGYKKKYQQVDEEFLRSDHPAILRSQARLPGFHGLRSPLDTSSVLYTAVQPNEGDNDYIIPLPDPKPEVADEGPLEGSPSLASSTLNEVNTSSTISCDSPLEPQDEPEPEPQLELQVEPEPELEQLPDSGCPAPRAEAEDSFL
Sequence of Platelet-derived growth factor receptor alpha (P16234 whole entry): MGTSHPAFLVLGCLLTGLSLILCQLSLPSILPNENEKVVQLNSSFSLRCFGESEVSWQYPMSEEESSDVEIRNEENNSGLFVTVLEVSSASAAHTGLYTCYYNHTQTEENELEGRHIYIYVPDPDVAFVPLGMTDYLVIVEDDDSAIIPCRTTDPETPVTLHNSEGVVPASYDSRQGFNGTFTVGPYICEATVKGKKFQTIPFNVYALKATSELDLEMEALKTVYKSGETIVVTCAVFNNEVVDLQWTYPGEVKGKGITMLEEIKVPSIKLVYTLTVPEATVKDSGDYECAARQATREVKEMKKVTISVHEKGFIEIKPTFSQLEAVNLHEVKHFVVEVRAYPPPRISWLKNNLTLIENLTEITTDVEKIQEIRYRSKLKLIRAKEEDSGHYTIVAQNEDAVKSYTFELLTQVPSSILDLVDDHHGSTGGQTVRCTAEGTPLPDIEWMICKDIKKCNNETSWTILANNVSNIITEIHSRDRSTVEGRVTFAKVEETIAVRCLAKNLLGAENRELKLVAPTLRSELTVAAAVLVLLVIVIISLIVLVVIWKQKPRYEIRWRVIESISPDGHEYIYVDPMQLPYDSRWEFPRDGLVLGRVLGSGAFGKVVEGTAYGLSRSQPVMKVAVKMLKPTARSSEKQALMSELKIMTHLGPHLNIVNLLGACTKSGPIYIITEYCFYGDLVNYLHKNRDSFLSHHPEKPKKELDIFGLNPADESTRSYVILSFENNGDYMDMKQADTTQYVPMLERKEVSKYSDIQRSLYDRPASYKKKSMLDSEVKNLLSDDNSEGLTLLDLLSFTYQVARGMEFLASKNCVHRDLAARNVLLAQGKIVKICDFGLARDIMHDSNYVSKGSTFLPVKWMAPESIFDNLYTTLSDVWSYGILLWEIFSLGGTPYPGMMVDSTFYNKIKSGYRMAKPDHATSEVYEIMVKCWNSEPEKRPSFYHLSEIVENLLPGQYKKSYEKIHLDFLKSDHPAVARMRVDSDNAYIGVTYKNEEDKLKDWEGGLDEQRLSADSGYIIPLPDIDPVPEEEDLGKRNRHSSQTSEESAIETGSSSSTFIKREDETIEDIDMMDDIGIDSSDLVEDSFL

inhibition [1]: 90.4%
Structure (SMILES): Cc1cnc(Nc2ccc(N3CCN(C)CC3)cc2)nc1Nc1ccc2c(c1)CCCC2

inhibition [1]: 79.2%
Structure (SMILES): Cc1cnc(Nc2ccc(N3CCN(C)CC3)cc2)nc1Nc1ccc2c(ccn2C)c1

IC50 [2]: 110 nM
Structure (SMILES): Cc1cnc(Nc2ccc(N3CCNCC3)cc2)nc1Nc1ccc2cn[nH]c2c1

IC50 [2]: 40.9 nM
Structure (SMILES): Cc1cnc(Nc2ccc(N3CCS(=O)(=O)CC3)cc2)nc1Nc1ccc2cn[nH]c2c1

IC50 [2]: 15.9 nM
Structure (SMILES): Cc1cnc(Nc2ccc(C(=O)NCCN3CCOCC3)cc2)nc1Nc1ccc2cn[nH]c2c1

inhibition [1]: 99.6%
Structure (SMILES): Cc1cnc(Nc2ccc(N3CCN(C)CC3)cc2)nc1Nc1ccc2cn[nH]c2c1

inhibition [1]: 3.5%
Structure (SMILES): CN1CCN(c2ccc(Nc3nc(Nc4ccc5cn[nH]c5c4)cc(C(F)(F)F)n3)cc2)CC1

inhibition [1]: 30.7%
Structure (SMILES): CCOC(=O)c1cnc(Nc2ccc(N3CCN(C)CC3)cc2)nc1Nc1ccc2cn[nH]c2c1

IC50 [2]: 55.6 nM
Structure (SMILES): COc1cc(N2CCC(N3CCN(C)CC3)CC2)ccc1Nc1ncc(C)c(Nc2ccc3cn[nH]c3c2)n1

inhibition [3]: 57.3%
inhibition [1]: 78.6%
Structure (SMILES): Cc1cnc(Nc2ccc(N3CCN(C)CC3)cc2)nc1Nc1ccc2[nH]ccc2c1

IC50 [4]: 760 nM
IC50 [2]: 4.6 nM
Structure (SMILES): COc1cc(Nc2ncc(C)c(Nc3ccc4cn[nH]c4c3)n2)ccc1N1CCN(C)CC1
IC50 [5]: 840 nM
IC50 [6]: 720 nM
IC50 [7]: 1360 nM

inhibition [1]: 90.3%
Structure (SMILES): Cc1cnc(Nc2ccc(N3CCN(C)CC3)cc2)nc1Nc1cccc2[nH]ccc12

IC50 [2]: 16.7 nM
Structure (SMILES): Cc1cnc(Nc2ccc(N3CCC(N4CCN(C)CC4)CC3)cc2)nc1Nc1ccc2cn[nH]c2c1

Structure (SMILES): Cc1ccc(NC(=O)c2ccc(CN3CCN(C)CC3)cc2)cc1Nc1nccc(-c2cccnc2)n1 [IMATINIB]
Activity [8]: Toxic

inhibition [1]: 91%
Structure (SMILES): Cc1cnc(Nc2ccc(N3CCN(C)CC3)cc2)nc1Nc1ccc2cccnc2c1

IC50 [2]: 90.9 nM
Structure (SMILES): Cc1cnc(Nc2ccc(N3CCC(F)(F)CC3)cc2)nc1Nc1ccc2cn[nH]c2c1

Cmax [10]: 78.3 ng/mL
half-life [18]: 2.12 h
bioavailability [19]: 62.9%
half-life [21]: 2.86 h
AUC(0-inf) [30]: 665 ng·h/mL
AUC(0-inf) [32]: 211 ng·h/mL
Cmax [35]: 75.2 ng/mL
Structure (SMILES): CCN1CCN(c2ccc(Nc3ncc(C)c(Nc4ccc5cn[nH]c5c4)n3)cc2OC)CC1.Cl
Activity [9]: Non-Toxic
Activity [11]: Non-Toxic
Activity [12]: Non-Toxic
Activity [13]: Non-Toxic
Activity [14]: Non-Toxic
Activity [15]: Non-Toxic
Activity [16]: Non-Toxic
Activity [17]: Non-Toxic
Activity [20]: Non-Toxic
Activity [22]: Non-Toxic
Activity [23]: Non-Toxic
Activity [24]: Non-Toxic
Activity [25]: Non-Toxic
Activity [26]: Non-Toxic
Activity [27]: Non-Toxic
Activity [28]: Non-Toxic
Activity [29]: Non-Toxic
Activity [31]: Non-Toxic
Activity [33]: Non-Toxic
Activity [34]: Non-Toxic
